In US20150094354A1, “METHOD FOR TREATING CELL PROLIFERATIVE DISORDER BY INHIBITING C1GALT1 EXPRESSION” (National Taiwan University, priority 2013, published 2015):

Legend:
Format in all cases: cell-based, human
HA22T cells [1] = assay: Trypan blue exclusion cell viability assay; settings: up to 72 hours
Procedure: (§1) Cells (4×10^4) are seeded in each well of 6-well plates with DMEM containing 10% FBS. Viable cells are analyzed by Trypan blue exclusion assay at 0, 24, 48, and 72 hours. Cell proliferation is evaluated by immunostaining with anti-Ki67 antibody (1:1000; Vector Laboratories). For cell-cycle analysis, 1×10^6 cells are stained with propidium iodide (Sigma) for 30 minutes. The percentages of cells in G1, S, and G2M phases are analyzed by flow cytometry (Becton Dickinson).
(§2) FIGS. 9A-9B are schematic diagrams illustrating the effects of C1GALT1 on the cell viability of hepatocellular carcinoma cells in vitro in accordance with an embodiment of the present invention. Cell viability of HA22T, PLC5, Sk-Hep1, and HCC36 cells was analyzed by Trypan blue exclusion assays at different time points for 72 hours. The results were standardized by the cell number at 0 hour. Data are represented as means±SD from three independent experiments. *, P<0.05; **, P<0.01.

PLC5 cells [2] = assay: Trypan blue exclusion cell viability assay; settings: PLC5, up to 72 hours
Procedure: as §1, §2

HA22T cells [3] = assay: Cell-cycle analysis by propidium iodide flow cytometry; settings: HA22T (not shown)
Procedure: as §1
(§3) FIGS. 10A-10B are schematic diagrams illustrating the effects of C1GALT1 on cell proliferation of hepatocellular carcinoma cells in vitro in accordance with an embodiment of the present invention. Cells were immunofluorescently stained for Ki67 and Ki67-positive cells were counted under a microscope. Results are presented as means±SD from three independent experiments. *, P<0.05; **, P<0.01.

PLC5 cells [4] = assay: as above; settings: PLC5 (not shown)
Procedure: as §1, §3

[5] = test system: HGF/MET signaling pathway; assay: HGF-induced signaling by Western blotting
Procedure: Human liver cancer cell lines, Huh7, PLC5, Sk-Hep1, and HepG2, are purchased from Bioresource Collection and Research Center in the year 2008. HA22T, SNU387, and HCC36 cells are kindly provided by Prof. Shiou-Hwei Yeh (National Taiwan University) in the year 2010. All cell lines are authenticated by the provider based on morphology, antigen expression, growth, DNA profile, and cytogenetics. Cells are cultured in Dulbecco's Modified Eagle Medium (DMEM) containing 10% FBS in 5% CO2 at 37° C. To analyze growth factor-induced cell signaling, cells are starved in serum-free DMEM for 5 hours and then treated with 25 ng/mL of hepatocyte growth factor (HGF) or insulin-like growth factor (IGF) at 37° C. for 30 minutes.
Equal amounts of protein samples are mixed with 5× sample buffer and boiled for 5 minutes, separated on SDS-polyacrylamide gels, and then transferred to PVDF membrane. The membranes are blocked in 5% BSA for 1 hour at room temperature, and incubated with primary antibodies overnight at 4° C. Anti-phosphotyrosine (4G10) antibody (Millipore, Billerica, Mass.), antibodies against C1GALT1, GAPDH, IGF-IR, MET pY 1234/5, IGF-IR pY1135/1136, p-AKT, p-ERK1/2, and ERK1/2 antibody (BD Pharmingen, San Jose, Calif.) are used. The blots are then incubated with secondary antibody conjugated with horseradish peroxidase and immunoreacted bands are detected by ECL reagents and exposed on x-ray film.
FIGS. 13A-13B are autoradiograms illustrating the effects of C1GALT1 on the HGF-induced signaling and IGF-induced signaling in hepatocellular carcinoma cells in accordance with an embodiment of the present invention. The role of C1GALT1 in glycosylation and activation of MET in hepatocellular carcinoma cells was investigated. HA22T, PLC5, Sk-Hep1, and HCC36 cells were starved for 5 hours and then treated with (+)/without (−) HGF (25 ng/mL) or IGF (25 ng/mL) for 30 minutes. Cell lysates ([…]) were analyzed by Western blotting with various antibodies, as indicated. […] In contrast, overexpression of C1GALT1 enhanced HGF-induced activation of MET and increased p-AKT levels in Sk-Hep1 and HCC36 cells, as shown in FIG. 13B.

| Substance | cell viability (HA22T cells [1]) | cell viability (PLC5 cells [2]) | cell cycle (HA22T cells [3]) | cell cycle (PLC5 cells [4]) | HGF-induced phosphorylation of MET at Y1234/5 ([5]; HA22T, HGF 25 ng/mL 30 minutes) | phosphorylation of AKT ([5]; HA22T, HGF 25 ng/mL 30 minutes) | HGF-induced phosphorylation of MET at Y1234/5 ([5]; PLC5, HGF 25 ng/mL 30 minutes) | phosphorylation of AKT ([5]; PLC5, HGF 25 ng/mL 30 minutes) |
| --- | --- | --- | --- | --- | --- | --- | --- | --- |
| C1GALT1 si-1: siRNA oligonucleotide against C1GALT1, presumably SEQ ID NO: 1, UUAGUAUACGUUCAGGUAAGGUAGG (chemistry not given here) | significantly suppressed | significantly suppressed | G1-phase arrest | G1-phase arrest | inhibited | suppressed | inhibited | suppressed |
| C1GALT1 si-2: siRNA oligonucleotide against C1GALT1, presumably SEQ ID NO: 2, UUAUGUUGGCUAGAAUCUGCAUUGA (chemistry not given here) | significantly suppressed | significantly suppressed | G1-phase arrest | G1-phase arrest | inhibited | suppressed | inhibited | suppressed |
